Test results: patent US9908868B2, “Isoindolinone compounds as GPR119 modulators for the treatment of diabetes, obesity, dyslipidemia and related disorders” (SANOFI, priority 2014, dated 2018)

Biological target: T1, human GPR119 (Homo sapiens, UniProt Q8TDV5)
T1 construct: expressed in transfected cells
T1 sequence (Q8TDV5 1-335): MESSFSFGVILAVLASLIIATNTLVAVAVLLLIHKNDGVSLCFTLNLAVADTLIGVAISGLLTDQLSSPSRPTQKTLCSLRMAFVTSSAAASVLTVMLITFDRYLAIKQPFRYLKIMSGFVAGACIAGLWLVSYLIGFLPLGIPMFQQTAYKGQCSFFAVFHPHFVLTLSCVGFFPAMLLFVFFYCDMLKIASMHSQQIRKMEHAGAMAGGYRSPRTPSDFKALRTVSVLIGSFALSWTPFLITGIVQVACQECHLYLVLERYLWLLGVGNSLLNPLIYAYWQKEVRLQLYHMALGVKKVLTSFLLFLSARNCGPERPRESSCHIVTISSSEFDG
Assay: Functional cellular assay measuring GPR119-mediated cAMP release (HTRF) in HEK-293 cells stably expressing recombinant human GPR119
Type: cell-based
Settings: cAMP response, cell line expressing human GPR119, 30 minutes at room temperature
Method in brief: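 HEK-293 cells stably expressing recombinant human GPR119, suspended at 400000 cells/mL in HBSS/20 mM HEPES/0.1% BSA/2 mM IBMX, exposed to compound for 30 minutes at room temperature. cAMP detected by HTRF (665/620 nm ratio) after 1 h with reagents in lysis buffer. EC50 taken as concentration giving 50% of maximal activation.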

SMILES | EC50 [nM]
COC(=O)CN1Cc2ccc(N3CC[C@@H](Oc4ccc(OCC(F)(F)F)nc4)C3=O)cc2C1=O [Example 1-65, methyl 2-[1-oxo-6-[(3R)-2-oxo-3-[[6-(2,2,2-trifluoroethoxy)-3-pyridyl]oxy]pyrrolidin-1-yl]isoindolin-2-yl]acetate] | 52
CN(CCO)C(=O)CN1Cc2ccc(N3CC[C@@H](Oc4ccc(OCC(F)(F)F)nc4)C3=O)cc2C1=O [Example 1-45, N-(2-hydroxyethyl)-N-methyl-2-[1-oxo-6-[(3R)-2-oxo-3-[[6-(2,2,2-trifluoroethoxy)-3-pyridyl]oxy]pyrrolidin-1-yl]isoindolin-2-yl]acetamide] | 179
COC(=O)CC1c2ccc(N3CC[C@@H](Oc4ccc(OCC5CC5)nc4)C3=O)cc2C(=O)N1C (stereo partly drawn) [Example 1-05, methyl 2-[5-[(3R)-3-[[6-(cyclopropylmethoxy)-3-pyridyl]oxy]-2-oxo-pyrrolidin-1-yl]-2-methyl-3-oxo-isoindolin-1-yl]acetate] | 313
C[S+]([O-])CN1Cc2ncc(N3CC[C@@H](Oc4ccc(C(=O)C5CC5)cc4)C3=O)cc2C1=O (stereo partly drawn) [Example 1-61, 3-[(3R)-3-[4-(cyclopropanecarbonyl)phenoxy]-2-oxo-pyrrolidin-1-yl]-6-(methylsulfinylmethyl)-7H-pyrrolo[3,4-b]pyridin-5-one] | 516
C[S@@+]([O-])CN1Cc2ncc(N3CC[C@@H](Oc4ccc(OCC(F)(F)F)nc4)C3=O)cc2C1=O [Example 1-69, 6-((R)-methanesulfinylmethyl)-3-{(R)-2-oxo-3-[6-(2,2,2-trifluoro-ethoxy)-pyridin-3-yloxy]-pyrrolidin-1-yl}-6,7-dihydro-pyrrolo[3,4-b]pyridin-5-one] | 131
COC(=O)CN1Cc2ccc(N3CC[C@@H](Oc4ccc(OC5CC5)nc4)C3=O)cc2C1=O [Example 1-22, methyl 2-[6-[(3R)-3-[[6-(cyclopropoxy)-3-pyridyl]oxy]-2-oxo-pyrrolidin-1-yl]-1-oxo-isoindolin-2-yl]acetate] | 242
CSCN1Cc2c(F)cc(N3CC[C@@H](Oc4ccc(OCC5CC5)nc4)C3=O)cc2C1=O [Example 1-20, 6-[(3R)-3-[[6-(cyclopropylmethoxy)-3-pyridyl]oxy]-2-oxo-pyrrolidin-1-yl]-4-fluoro-2-(methylsulfanylmethyl)isoindolin-1-one] | 46
CC1c2ccc(N3CC[C@@H](Oc4ccc(OCC5CC5)nc4)C3=O)cc2C(=O)N1CC(=O)O (stereo partly drawn) [Example 1-14, 2-[5-[(3R)-3-[[6-(cyclopropylmethoxy)-3-pyridyl]oxy]-2-oxo-pyrrolidin-1-yl]-1-methyl-3-oxo-isoindolin-2-yl]acetic acid] | 4440
CC(C)(C)N1Cc2c(F)cc(N3CC[C@@H](Oc4ccc(OCC5CC5)nc4)C3=O)cc2C1=O [Example 1-33, 2-tert-butyl-6-[(3R)-3-[[6-(cyclopropylmethoxy)-3-pyridyl]oxy]-2-oxo-pyrrolidin-1-yl]-4-fluoro-isoindolin-1-one] | 8510

Other lines, results leading:

EC50 [nM] | SMILES
562 | O=C(CN1Cc2ccc(N3CC[C@@H](Oc4ccc(OCC(F)(F)F)nc4)C3=O)cc2C1=O)NC1CC1 [Example 4-36, N-cyclopropyl-2-[1-oxo-6-[(3R)-2-oxo-3-[[6-(2,2,2-trifluoroethoxy)-3-pyridyl]oxy]pyrrolidin-1-yl]isoindolin-2-yl]acetamide]
130 | NC(=O)CN1Cc2ccc(N3CC[C@@H](Oc4ccc(C(=O)C5CC5)cc4)C3=O)cc2C1=O [Example 2-53, 2-[6-[(3R)-3-[4-(cyclopropanecarbonyl)phenoxy]-2-oxo-pyrrolidin-1-yl]-1-oxo-isoindolin-2-yl]acetamide]
32800 | CN(C)C(=O)CN1Cc2ccc(N3CC[C@@H](Oc4ccc(-n5cnnc5)cc4)C3=O)cc2C1=O [Example 2-36, N,N-dimethyl-2-[1-oxo-6-[(3R)-2-oxo-3-[4-(1,2,4-triazol-4-yl)phenoxy]pyrrolidin-1-yl]isoindolin-2-yl]acetamide]
56 | CN(C)C(=O)CN1Cc2ccc(N3CC[C@@H](Oc4ccc(CCCC5CC5)nc4)C3=O)cc2C1=O [Example 2-02, 2-[6-[(3R)-3-[[6-(3-cyclopropylpropyl)-3-pyridyl]oxy]-2-oxo-pyrrolidin-1-yl]-1-oxo-isoindolin-2-yl]-N,N-dimethyl-acetamide]
126 | CN(C)C(=O)CN1Cc2c(F)cc(N3CC[C@@H](Oc4ccc(OCC(C)(C)C)nc4)C3=O)cc2C1=O [Example 6-02, 2-[6-[(3R)-3-[[6-(2,2-dimethylpropoxy)-3-pyridyl]oxy]-2-oxo-pyrrolidin-1-yl]-4-fluoro-1-oxo-isoindolin-2-yl]-N,N-dimethyl-acetamide]
125 | CN(C)C(=O)CN1Cc2ccc(N3CC[C@@H](Oc4ccc(C(=O)C5CC5(F)F)cc4)C3=O)cc2C1=O (stereo partly drawn) [Example 2-65, 2-[6-[(3R)-3-[4-(2,2-difluorocyclopropanecarbonyl)phenoxy]-2-oxo-pyrrolidin-1-yl]-1-oxo-isoindolin-2-yl]-N,N-dimethyl-acetamide]
44 | CCCCC(=O)c1ccc(O[C@@H]2CCN(c3ccc4c(c3)C(=O)N(CC(=O)N(C)C)C4)C2=O)cc1 [Example 2-12, N,N-dimethyl-2-[1-oxo-6-[(3R)-2-oxo-3-(4-pentanoylphenoxy)pyrrolidin-1-yl]isoindolin-2-yl]acetamide]
556 | O=C(CN1Cc2ccc(N3CC[C@@H](Oc4ccc(OCC5CC5)nc4)C3=O)cc2C1=O)NC[C@@H](O)CO [Example 4-35, 2-[6-[(3R)-3-[[6-(cyclopropylmethoxy)-3-pyridyl]oxy]-2-oxo-pyrrolidin-1-yl]-1-oxo-isoindolin-2-yl]-N-[(2R)-2,3-dihydroxypropyl]acetamide]
222 | CCOc1ccc(O[C@@H]2CCN(c3cc(F)c4c(c3)C(=O)N(CC(=O)N(C)C)C4)C2=O)cn1 [Example 4-21, 2-[6-[(3R)-3-[(6-ethoxy-3-pyridyl)oxy]-2-oxo-pyrrolidin-1-yl]-4-fluoro-1-oxo-isoindolin-2-yl]-N,N-dimethyl-acetamide]
281 | CN(CCO)C(=O)CN1Cc2ccc(N3CC[C@@H](Oc4ccc(OCC5CC5)nc4)C3=O)cc2C1=O [Example 4-06, 2-[6-[(3R)-3-[[6-(cyclopropylmethoxy)-3-pyridyl]oxy]-2-oxo-pyrrolidin-1-yl]-1-oxo-isoindolin-2-yl]-N-(2-hydroxyethyl)-N-methyl-acetamide]
84 | CC(C)c1noc(-c2ccc(O[C@@H]3CCN(c4ccc5c(c4)C(=O)N(CC(=O)N(C)C)C5)C3=O)cc2)n1 [Example 2-34, 2-[6-[(3R)-3-[4-(3-isopropyl-1,2,4-oxadiazol-5-yl)phenoxy]-2-oxo-pyrrolidin-1-yl]-1-oxo-isoindolin-2-yl]-N,N-dimethyl-acetamide]
1500 | Cc1noc(COc2ccc(O[C@@H]3CCN(c4ccc5c(c4)C(=O)N(CC(=O)N(C)C)C5)C3=O)cc2)n1 [Example 2-43, N,N-dimethyl-2-[6-[(3R)-3-[4-[(3-methyl-1,2,4-oxadiazol-5-yl)methoxy]phenoxy]-2-oxo-pyrrolidin-1-yl]-1-oxo-isoindolin-2-yl]acetamide]
131 | CNC(=O)CN1Cc2ccc(N3CC[C@@H](Oc4ccc(OCC(F)(F)F)nc4)C3=O)cc2C1=O [Example 4-38, N-methyl-2-[1-oxo-6-[(3R)-2-oxo-3-[[6-(2,2,2-trifluoroethoxy)-3-pyridyl]oxy]pyrrolidin-1-yl]isoindolin-2-yl]acetamide]
9360 | CN(C)C(=O)CN1Cc2ccc(N3CC[C@@H](Oc4ccc(F)nc4)C3=O)cc2C1=O [Example 2-17, 2-[6-[(3R)-3-[(6-fluoro-3-pyridyl)oxy]-2-oxo-pyrrolidin-1-yl]-1-oxo-isoindolin-2-yl]-N,N-dimethyl-acetamide]
1240 | CN1Cc2c(F)cc(N3CC[C@@H](Oc4ccc(OCCC5CC5)nc4)C3=O)cc2C1=O [Example 5-04, 6-[(3R)-3-[[6-(2-cyclopropylethoxy)-3-pyridyl]oxy]-2-oxo-pyrrolidin-1-yl]-4-fluoro-2-methyl-isoindolin-1-one]
5040 | CC(C)N1Cc2c(F)cc(N3CC[C@@H](Oc4ccc(OCCC5CC5)nc4)C3=O)cc2C1=O [Example 5-05, 6-[(3R)-3-[[6-(2-cyclopropylethoxy)-3-pyridyl]oxy]-2-oxo-pyrrolidin-1-yl]-4-fluoro-2-isopropyl-isoindolin-1-one]
157 | COCCNC(=O)CN1Cc2c(F)cc(N3CC[C@@H](Oc4ccc(OCC5CC5)nc4)C3=O)cc2C1=O [Example 4-23, 2-[6-[(3R)-3-[[6-(cyclopropylmethoxy)-3-pyridyl]oxy]-2-oxo-pyrrolidin-1-yl]-4-fluoro-1-oxo-isoindolin-2-yl]-N-(2-methoxyethyl)acetamide]
267 | CCC(=O)c1ccc(O[C@@H]2CCN(c3ccc4c(c3)C(=O)N(CC(=O)N(C)C)C4)C2=O)cc1 [Example 2-11, N,N-dimethyl-2-[1-oxo-6-[(3R)-2-oxo-3-(4-propanoylphenoxy)pyrrolidin-1-yl]isoindolin-2-yl]acetamide]
80 | CN(C)C(=O)CN1Cc2c(F)cc(N3CC[C@@H](Oc4ccc(OCC5CC5)nc4)C3=O)cc2C1=O [Example 4-25, 2-[6-[(3R)-3-[[6-(cyclopropylmethoxy)-3-pyridyl]oxy]-2-oxo-pyrrolidin-1-yl]-4-fluoro-1-oxo-isoindolin-2-yl]-N,N-dimethyl-acetamide]
